Assay results: patent publication US11975003B2, “Methods and compositions for treatment of Zika virus infection” (priority 2016, dated 2024)
Where two headings read alike, the source gives them in different places.

What was measured:
[1] = tested on: Zika virus (Malaysia, strain P 6-740); assay: Murine Zika virus model, treatment begun 4 h before infection (Example 3); settings: for relative virus levels vs placebo: FIG. 4; for weight change in grams between days 7 and 13 post-infection: FIG. 3B
Procedure: The agents used in this experiment were compound A (the compound of formula I, where A is NH2 and B is H as the HCL salt) and ribavirin. Compound A was administered IM at 150 mg/kg/day and 300 mg/kg/day, each in a volume of 0.05 ml saline and ribavirin was administered IP at 75 mg/kg/day and 50 mg/kg/day, each in a volume of 0.1 ml saline. IM or IP administration of the daily dose was accomplished in two IM/IP injections of one-half the daily dose each. Mice were administered the first dose of Compound A and ribavirin 4 hours prior to infection with Zika virus and continued the treatment for 8 days post-infection.
In this experiment, Zika virus (Malaysia, strain P 6-740) was administered at a challenge dose of 100 CCID50 (10^3 pfu) per mouse via subcutaneous injection in a 0.1 ml volume.
Mice were monitored for survival 28 days post-virus challenge. Weight change for individual mice were taken on day 0 and every other day through the end of the experiments. Mice were observed daily for signs of disease including conjunctivitis, hunching, and limb weakness or paralysis.
For Zika virus infection and antiviral treatment studies, mice were randomly assigned to groups of 10 animals each. A 10^-3 dilution (10^4.0 pfu/mL) of the virus was prepared in MEM. Mice were challenged s.c. with 0.1 mL of the diluted virus (˜10^3.0 pfu/animal). All compound dosages were based on an average mouse weight of 22 g. Compounds were prepared in sterile saline less than 18 hours prior to initial administration in mice and stored at 4° C. for the duration of the study. Compound A was administered i.m., twice daily (bid) at 300 or 150 mg/kg/d. Ribavirin was given i.p., bid at 75 or 50 mg/kg/d. Treatments began 4 hours prior to virus challenge and continued for 8 days. The identity of the treatment groups was blinded to the technician administering treatments. Mortality was observed twice daily for 28 days, and the weight of each mouse was recorded on day 0 and then every other day from 1-19 days post-virus infection (dpi). Mice were humanely euthanized if they could no longer right themselves or were unresponsive to stimuli.
Fifty to 100 mg of freshly isolated tissue was ground with a pestle in 1 mL TRI Reagent (Sigma-Aldrich, St. Louis, MO) and total RNA was extracted. For the extraction of viral RNA from liquid samples, QlAamp Viral RNA Mini Spin kit was used according to the manufactures instructions (Qiagen, Valencia, CA). Extracted RNA was eluted with nuclease-free water and was amplified by a quantitative real-time RT-PCR using the Logix Smart Zika Test developed by Co-Diagnostics, Inc. (Bountiful, UT). Five μL of the master mix containing a set of primers and Rapid Probe, labeled with a FAM fluorophore and DABCYL quencher, was mixed with 2-5 μL of RNA and an appropriate volume of water for a final reaction volume of 10 μl. RNA was first reverse transcribed for 10 minutes at 55° C., followed by strand separation by heating to 95° C. for 20 seconds. The PCR reaction consisted of 40 cycles at 95° C. for 1 second and 55° C. for 20 seconds. A standard curve was generated with a synthetic RNA spanning the region of amplification and it was used to calculate the number of genome equivalents of the unknown samples.

Compound: Cl.Nc1ncnc2c([C@@H]3N[C@H](CO)[C@@H](O)[C@H]3O)c[nH]c12 [Compound A]
- relative virus levels vs placebo ([1]; 150 mg/kg/day IM (group 3)): decreased viral levels in a statistically significant manner
- survival ([1]; 150 mg/kg/day IM bid x 8 days, begun -4 h (group 3)): all died by day 27 post-infection
- mortality curve vs placebo ([1]; 150 mg/kg/day IM bid x 8 days, begun -4 h (group 3), p<0.001): delayed the mortality curve
- percent weight change ([1]; 150 mg/kg/day IM, Zika infected (group 3), FIG. 3A): modest weight reduction starting around day 15 post-infection
- weight change in grams between days 7 and 13 post-infection ([1]; 150 mg/kg/day IM): weight change similar to that seen in normal controls
- morbidity in surviving mice 28 days post-infection ([1]; 300 mg/kg/day IM (group 1)): no morbidity was observed
- weight change in grams between days 7 and 13 post-infection ([1]; 300 mg/kg/day IM (group 1)): weight change similar to that seen in normal controls
- relative virus levels vs placebo ([1]; 300 mg/kg/day IM (group 1)): decreased viral levels in a statistically significant manner
- mice survived to day 28 post-infection ([1]; 300 mg/kg/day IM bid x 8 days, begun -4 h (group 1), p<0.0001 vs placebo): 7/8
- morbidity or mortality at day 28 in sham-infected mice ([1]; 300 mg/kg/day IM bid x 8 days, sham infection (group 2)): No morbidity or mortality
- percent weight change ([1]; 300 mg/kg/day IM, Zika infected (group 1), FIG. 3A): weight change similar to that seen in normal controls
- percent weight change in sham-infected mice ([1]; 300 mg/kg/day IM, sham infection (group 2), FIG. 3A): weight change similar to that seen in normal controls
- plasma viremia through day 28 post-infection (Zika virus PRVABC-59; Group 1: 200 mg/kg split dose day 0 (+90 min), 25 mg/kg b.i.d. days 1-9, IM, n=5): did not develop detectable viremia
- Zika virus RNA in CSF, saliva and urine (Zika virus PRVABC-59; Group 1, FIG. 13A): only sporadically detectable Zika virus RNA
- magnitude of viremia in viremic animals (Zika virus PRVABC-59; Group 2: 200 mg/kg split dose day 0 only, IM): significantly reduced as compared to control
- animals with detectable plasma viremia (Zika virus PRVABC-59; Group 2: 200 mg/kg split dose day 0 only, IM, n=5): only two animals from this group showing viremia
- Zika virus RNA in CSF, saliva and urine (Zika virus PRVABC-59; Group 2, FIG. 13B): only sporadically detectable Zika virus RNA
- tolerability (Zika virus PRVABC-59; IM, Groups 1 and 2): well-tolerated
